Assays:
[1] = tissue distribution (TD) assay in mouse, brain and plasma; type: in vivo, male C57BL/6 mouse
[2] = brain and plasma concentration in rat cuprizone model after 21 days repeat administration; type: in vivo; conditions: 21 days repeat administration 30 or 100 μg/kg, 4 hours post-final dose
Procedure: In vivo brain exposure of active compound compared to prodrug was assessed via tissue distribution (TD) assay in mouse and rat cuprizone model, measured as brain exposure ratio of brain to plasma following thyromimetic treatment. […] Table 3 also depicts brain-to-plasma AUC ratio.

AUC ([1]; male, C57BL/6, mouse, plasma, po, 100 ug/kg): 35.8 ng·h/mL
Brain AUC ([1]; single PO 100 μg/kg, male C57BL/6 mouse, AUC 0-24 hr): 73.9 ng·h/mL
brain exposure compared to prodrug LL-341070 [2]: enhanced brain exposure
SMILES: CC(C)c1c(O)ccc(Cc2c(Cl)cc(OCC(=O)O)cc2Cl)c1F [LL-341070A]

From US20250302775A1, “METHODS FOR THE TREATMENT OF DEPRESSION” (Autobahn Therapeutics, Inc., priority 2022, published 2025)
